Data from PubChem BioAssay (NCI).
Values joined by “and” are separate entries in the source; they are usually repeats but may differ in a detail not shown here. Equal entries are not always repeated.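 Where inhibition never reached the appropriate level, the endpoint shown equals the highest concentration tested. Otherwise, values were interpolated linearly from a five-concentration, 48-hour dose response in 96-well plates. The concentration for 50% growth inhibition is given as GI50. At the TGI there is no net growth.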

Experiments:
Experiment in all cases: NCI anticancer screen, dose series, 48 h
[1] = system: COLO 205 colon
[2] = system: K-562 leukemia
[3] = system: SK-OV-3 ovarian
[4] = system: HCT-116 colon
[5] = system: ACHN renal
[6] = system: PC-3 prostate
[7] = system: DU-145 prostate
[8] = system: MALME-3M melanoma
[9] = system: SK-MEL-28 melanoma
[10] = system: SF-268 CNS

Row | SMILES | GI50 [1] | TGI [1] [µM] | GI50 [2] | TGI [2] [µM] | GI50 [3] | TGI [3] [µM] | GI50 [4] | TGI [4] [µM] | GI50 [5] | TGI [5] [µM] | GI50 [6] | TGI [6] [µM] | GI50 [7] | TGI [7] [µM] | GI50 [8] | TGI [8] | GI50 [9] | GI50 [10] | TGI [10] [µM] | TGI [9] [µM]
1 | O=C(NC[C@H](O)CO)c1ccncc1Nc1ccc(I)cc1F | 0.00323 µM and < 0.01 µM | > 100 | 1.32 µM and 4.26 µM | > 100 | > 4.46 µM and 26.2 µM | > 100 | 0.0556 µM and 0.104 µM | > 100 | > 2.47 µM and 6.98 µM | > 100 | > 10 µM and 61 µM | > 100 | > 10 µM and 17.8 µM | > 100 | 0.00242 µM and < 0.01 µM | 0.0972 µM and < 0.0162 µM | 0.00334 µM and < 0.0104 µM | > 10 µM and 29.9 µM | > 100 | –
2 | CCN(CC)Cc1ccc(Nc2nccc(-c3cnn4ncccc34)n2)cc1 | 0.00829 µM | 0.0337 | 0.0682 µM | > 25 | 0.0825 µM | > 25 | 0.00984 µM | > 25 | 0.00739 µM | > 25 | 0.0184 µM | > 25 | 0.012 µM | > 8.56 | 0.033 µM | 0.11 µM | 0.015 µM | 0.0145 µM | 0.607 | 0.0727
3 | C[C@]12CC[C@H]3[C@@H](CC[C@]4(O)C[C@@H](O)CC[C@]34/C=N/O)[C@@]1(O)CC[C@@H]2C1=COC(=O)C1 | – | 1.33 | – | 0.93 | – | 0.403 | – | 0.165 | – | 0.67 | – | 0.532 | – | 0.111 | – | 1.09 µM | – | – | 0.331 | 2.06
4 | O=C(Nc1cccc(NC(=O)Nc2cc(C(F)(F)F)ccc2Cl)c1)Nc1cc(C(F)(F)F)ccc1Cl | 3.44 µM | > 100 | 2.17 µM | 44.7 | 2.9 µM | 11.3 | 2.41 µM | 22.8 | 0.983 µM | 11.2 | 1.4 µM | 8.23 | 4.11 µM | 17.8 | 4.55 µM | 44.1 µM | 2.84 µM | 5.19 µM | 34.2 | 15.4
5 | Cn1cc(C2=C(c3cccc(OCC(O)CO)c3)C(=O)NC2=O)c2ccccc21 (stereo not given) | > 25 µM | > 25 | > 25 µM | > 25 | > 25 µM | > 25 | > 25 µM | > 25 | > 25 µM | > 25 | > 25 µM | > 25 | > 25 µM | > 25 | > 25 µM | > 25 µM | > 25 µM | > 25 µM | > 25 | > 25
6 | CN(C)c1ccc2c(c1)OC(N)=C(C#N)C2c1ccc2c(c1)CCO2 (stereo not given) | 0.28 µM | 3.39 | < 0.023 µM | > 100 | 0.224 µM | > 73.9 | < 0.0201 µM | 8.52 | 0.0683 µM | > 67.1 | 0.0664 µM | > 100 | 0.229 µM | > 100 | 14.9 µM | 59.7 µM | 1.92 µM | 0.524 µM | 97.4 | 29.5
7 | COc1ccc(C(=O)c2cc3c(N)c(C(=O)Nc4cccc5ccccc45)sc3nc2C)cc1 | 0.209 µM | > 13.3 | 0.163 µM | > 50 | 0.429 µM | > 50 | 0.18 µM | > 18.9 | 0.364 µM | > 50 | 0.212 µM | > 50 | 0.19 µM | > 50 | 0.378 µM | > 50 µM | > 50 µM | 0.529 µM | > 50 | > 50
8 | C1CN(SSN2CCOCC2)CCO1 | 25 µM | 64 | 4.58 µM | > 100 | > 100 µM | > 100 | 20 µM | 40.6 | 81 µM | > 100 | 25 µM | > 100 | > 100 µM | > 100 | 53.6 µM | > 100 µM | > 100 µM | 47.6 µM | > 100 | > 100
9 | CCc1ccc(NC(=O)COC(=O)c2cc([N+](=O)[O-])ccc2Sc2nnnn2C)cc1 | 16 µM | 33.8 | 9.4 µM | 50.6 | 27.1 µM | > 100 | 6.76 µM | 20.2 | 14.2 µM | 33.1 | 15.2 µM | 84.5 | 4.9 µM | 28.2 | 24.2 µM | > 100 µM | 9.94 µM | 14.5 µM | 70.7 | 28.8
10 | O=C(Nc1ccc(Cl)c(Cl)c1)O/N=C\c1c(Cl)ccc([N+](=O)[O-])c1Cl | 2.4 µM | 4.81 | 0.825 µM | 6.56 | 5.82 µM | 17.6 | 1.49 µM | 3.25 | 1.65 µM | 3.33 | 1.58 µM | 3.74 | 1.73 µM | 3.23 | – | – | 2.1 µM | 2.81 µM | 9.63 | 4.22
11 | NC(=O)c1c(NC(=O)c2ccc3c(c2)OCO3)sc2c1CCC(=O)C2 | 2.49 µM | 7.42 | 0.356 µM | > 100 | – | – | – | – | 1.51 µM | 5.11 | 0.313 µM | > 100 | 4.5 µM | > 100 | 2.04 µM | 4.67 µM | 3 µM | 1.88 µM | > 100 | > 100
12 | COc1cc([C@H]2OC[C@H]3[C@@H]2CO[C@@H]3c2cc(OC)c3c(c2)OCO3)cc(OC)c1OC | – | > 100 | – | > 100 | – | > 100 | – | > 100 | – | > 100 | – | > 100 | – | > 100 | – | – | – | – | > 100 | > 100
13 | COc1ccc(OC)c(-c2c(C#N)c(N)nc(N3CCOCC3)c2C#N)c1 | > 100 µM | > 100 | > 100 µM | > 100 | 11.9 µM | > 100 | > 100 µM | > 100 | 67.9 µM | > 100 | 95.4 µM | > 100 | > 100 µM | > 100 | – | – | 82.8 µM | > 100 µM | > 100 | > 100
